Laboratory results taken from patent US10519247B2, “Targeting HER2 and HER3 with bispecific antibodies in cancerous cells” (Board of Regents, The University of Texas System, priority 2013, dated 2019).

Legend:
Assay type in all cases: cell-based, human
SK-BR-3 cells [1] = assay: Flow cytometry of cell surface HER2 and HER3, SK-BR-3; details: 1 μM lapatinib, 24 hours
Procedure: (§1) Cells were treated with 1 μM lapatinib (Lap), medium (Med) or vehicle control (DMSO) for 24 hours.
(§2) The methodology used to determine HER2 and HER3 levels by flowcytometry is as follows, unless otherwise indicated. Antibodies were labeled with either Alexa Fluor® 647 carboxylic acid, succinimidyl ester (Life Technologies, Catalog # A-20173) or Alexa Fluor® 488 carboxylic acid, succinimidyl ester (Life Technologies, Catalog # A-10235) using methods recommended by the manufacturer. Following the labeling reaction, antibodies were extensively dialyzed against PBS to remove unincorporated Alexa dye. Cells were seeded at a density of 100,000 cells per well in 24 well plates, incubated overnight, and subsequently treated with either 1 μM lapatinib or vehicle control (DMSO) for 24 hours at 37° C. in a CO2 incubator. […] Following incubation, cells were trypsinized, washed, and suspended in PBS. Stained cells were analyzed using a BD FACScalibur and data processed using FlowJo (Tree Star).

BT-474 cells [2] = assay: Flow cytometry of cell surface HER2 and HER3, BT-474; details: 1 μM lapatinib, 24 hours
Procedure: as §1, §2

SK-BR-3 cells [3] = assay: Proliferation assay (MTS), SK-BR-3; details: 5 days
Procedure: (§3) Cells were plated in 96 well plates at a density of 2,500 cells per well and incubated overnight. […] Antibodies were used at a concentration of 50 nM unless otherwise indicated. Dimethyl sulfoxide or phosphate buffered saline (PBS) were used as vehicle controls for lapatinib or HRG-β1/antibodies, respectively. After 5 days of incubation in a 37° C. 5% CO2 incubator, cell proliferation was quantitated using CellTiter 96 AQeous One Solution Proliferation Assay kit (Promega, catalog no. G3580) according to the manufacturer's instructions.

SK-BR-3 cells [4] = assay: Immunoblotting of cell lysates, SK-BR-3
Procedure: (§4) Cells cultured to near confluence in 6 well plates were treated with lapatinib, HRG-β1 or antibodies as for proliferation assays. Following one or 24 hours incubation, cells were lysed using RIPA buffer (50 mM Tris, 150 mM NaCl, 0.5% sodium deoxycholate, 1% Triton X-100, 0.1% sodium dodecyl sulfate, 2 ug/mL aprotinin, 2 ug/mL leupeptin, 1 ug/mL pepstatin A, and 0.4 mg/mL pefabloc SC PLUS). Lysates were centrifuged for 20 minutes at 14,600 rpm at 4° C. and supernatants were collected. Protein concentrations in each lysate were determined using the BCA protein assay reagent (Pierce, catalog no. 23223). Total lysates were fractionated by SDS-PAGE and transferred onto polyvinylidene difluoride (PVDF) membranes (Millipore, catalog no. IPVH00010) or nitrocellulose membranes (Bio-Rad, catalog no 162.0145). Membranes were incubated with 5% bovine serum albumin in Tris-buffered saline with 0.1% Tween (TBST, pH 8.0) for 1 hour following transfer to block non-specific binding sites. Blocked membranes were incubated with primary antibodies overnight at 4° C. with agitation. Prior to incubation with the secondary antibodies conjugated to horseradish peroxidase, blots were washed three times (10 minutes/wash) with TB ST. Following incubation with secondary antibodies for 1 hour and washing, bound secondary antibody was detected using chemiluminescent detection regent (GE Healthcare, catalog no. RPN 2209/AF).

BT-474 cells [5] = assay: Immunoblotting of cell lysates, BT-474
Procedure: as §4

BT-474 cells [6] = assay: Proliferation assay (MTS), BT-474; details: 5 days
Procedure: as §3

HCC1419 cells = assay: Proliferation assay (MTS), HCC1419; details: 5 days
Procedure: as §3

SK-BR-3 cells [7] = assay: Fluorescence microscopy of intracellular trafficking; details: 50 nM
Source text: The combined pulse plus chase times are indicated on the left margin. Anti-HER3 or HER2/HER3 antibodies were detected with Alexa 555-labeled secondary antibody (pseudocolored red in overlay) and anti-EEA-1 antibody with Alexa 647-labeled secondary antibody (pseudocolored green in overlay). […] Scale bars=2 μm.
Cells were fixed, permeabilized and stained for LAMP-1. Anti-HER3 or HER2/HER3 antibodies were detected with Alexa 555-labeled secondary antibody (pseudocolored red in overlay) and anti-LAMP-1 antibody with Alexa 488-labeled secondary antibody (pseudocolored green in overlay). […] Scale bars=2 μm.
For fixation, cells were treated with 1.7% (w/v) paraformaldehyde for 10 minutes at 37° C. and then permeabilized with 0.05% (v/v) saponin for 10 minutes at room temperature in PBS. […] After blocking for 30 minutes with goat serum (Sigma-Aldrich, catalog no. G6767), bound primary antibodies were detected by incubating cells with the following secondary antibody conjugates for 25 minutes at room temperature: Alexa 555-labeled goat anti-human IgG (H+L) (Life Technologies, catalog no. A21433), Alexa 647-labeled goat anti-mouse IgG (H+L) (Life Technologies, catalog no. A21236) and Alexa 488-labeled goat anti-rabbit IgG (H+L) (Life Technologies, catalog no. A11034). […]

[8] = lapatinib 50 nM-1 μM, no heregulin
[9] = 1 μM lapatinib + heregulin 6.25 nM
[10] = 50 nM antibody + heregulin 6.25 nM
[11] = 50 nM antibody + 1 μM lapatinib + heregulin 6.25 nM
[12] = 50 nM antibody, no heregulin, no lapatinib
[13] = 50 nM antibody, one hour, versus trastuzumab, pertuzumab, TAb6 or PAb6, not sustained at 24 hours

Molecule: CS(=O)(=O)CCNCc1ccc(-c2ccc3ncnc(Nc4ccc(OCc5cccc(F)c5)c(Cl)c4)c3c2)o1 [lapatinib, reference compound]
- HER2 levels on the plasma membrane (SK-BR-3 cells [1]): upregulation
- HER3 levels on the plasma membrane (SK-BR-3 cells [1]): upregulation
- HER2 levels on the plasma membrane (BT-474 cells [2]): not upregulated
- HER3 levels on the plasma membrane (BT-474 cells [2]): upregulation
- proliferation, lapatinib alone (SK-BR-3 cells [3]; [8]): inhibition of proliferation
- proliferation, lapatinib plus heregulin (SK-BR-3 cells [3]; lapatinib + heregulin 6.25 nM): growth inhibition was ablated
- inhibition of HER3, Akt and Erk phosphorylation, lapatinib plus heregulin (SK-BR-3 cells [4]; [9]): partially reversed
- HER3, Akt and Erk phosphorylation, lapatinib alone (SK-BR-3 cells [4]; 1 μM lapatinib, 1 or 24 hours): potent inhibition
- inhibition of HER3, Akt and Erk phosphorylation, lapatinib plus heregulin (BT-474 cells [5]; [9]): partially reversed
- HER3, Akt and Erk phosphorylation, lapatinib alone (BT-474 cells [5]; 1 μM lapatinib, 1 or 24 hours): potent inhibition
- proliferation, lapatinib alone (BT-474 cells [6]; [8]): inhibition of proliferation
- proliferation, lapatinib plus heregulin (BT-474 cells [6]; lapatinib + heregulin 6.25 nM): growth inhibition was ablated

Molecule: heregulin [reference compound]
- proliferation in the presence of heregulin alone (SK-BR-3 cells [3]; [10]): reduced proliferation
- proliferation in the presence of heregulin alone (HCC1419 cells; heregulin 6.25 nM): increased proliferation
- proliferation in the presence of heregulin alone (BT-474 cells [6]; heregulin 6.25 nM): trend towards heregulin-stimulated proliferation

B1: Ab6: bivalent anti-HER3 antibody which competes with heregulin for binding to HER3 (antibody, V domains shown)
VH: QVQLLESGGGLVQPGGSLRLSCAASGFTFSHYVMAWVRQAPGKGLEWVSSISSSGGWTLYADSVKGRFTISRDNSKNTLYLQMNSLRAEDTAVYYCTRGLKMATIFDYWGQGTLVTVSS
VL: DIQLTQPASVSGSPGQSITISCTGTSSDVGSYNVVSWYQQHPGKAPKLIIYEVSQRPSGVSNRFSGSKSGNTASLTISGLQTEDEADYYCCSYAGSSIFVIFGGGTKVTVL
- localization following 15 minutes of treatment (SK-BR-3 cells [7]): internalized into early endosomes
- localization within one hour of treatment (SK-BR-3 cells [7]; 15 minutes pulse, 45 minutes chase): present in LAMP-1+ lysosomes
- proliferation in the presence of heregulin and lapatinib (SK-BR-3 cells [3]; [11]): anti-proliferative effects
- proliferation (SK-BR-3 cells [3]; [12]): reduced proliferation
- pAkt levels in the presence of heregulin (SK-BR-3 cells [4]; 50 nM antibody + heregulin 6.25 nM, 24 hours): a reduction
- pErk levels at one hour (SK-BR-3 cells [4]; [13]): lower
- pErk levels at one hour (BT-474 cells [5]; [13]): lower
- proliferation in the presence of heregulin and lapatinib (HCC1419 cells; [11]): anti-proliferative effects
- proliferation in the presence of heregulin (HCC1419 cells; [10]): ablated the inhibitory effects
- proliferation (HCC1419 cells; [12]): reduced proliferation
- proliferation in the presence of heregulin and lapatinib (BT-474 cells [6]; [11]): anti-proliferative effects
- proliferation in the presence of heregulin (BT-474 cells [6]; [10]): ablated the inhibitory effects
- proliferation (BT-474 cells [6]; [12]): the effects were not significant
